Measured values as given in article PMC4117768, “Conjugation with polyamines enhances the antibacterial and anticancer activity of chloramphenicol” (Nucleic Acids Research, 2014).
Entries after “also recorded” stand apart in the source; their conditions may differ.

Key:
[1] = test system: immortalized human mesothelial Met5A cells; assay: Cell viability by trypan blue exclusion assay; type: cell-based; conditions: for IC50: Homo sapiens, MeT-5A, Met5A cells, read-out: IC50 (toxicity, cell viability)
Procedure: (§1) ZL34 and Met5A cells were plated in sterile 96-well microtiter plates at 5 × 10^4cells/ml and grown in Dulbecco's modified Eagle's medium (DMEM), provided by Sigma-Aldrich and supplemented with 5% fetal bovine serum. Cultures were maintained in a humidified atmosphere with 5% CO2, at 37°C. Solutions at the appropriate concentration of each compound were added, and then cells were grown for 24, 48, 72 and 96 h. After treatment, the drug was removed by washing the cells twice with phosphate buffered saline. The cells were then trypsinized (100 μl Trypsin-EDTA × 1 (Biosera) solution/well, 10 min at 37°C), mixed with 1 ml DMEM and collected by centrifugation at 3000 × g for 5 min. Cell viabilities were determined by the trypan blue exclusion assay, using a TC10 automated cell counter (BIO-RAD). Viable cells were expressed as a percentage of total cells.
(§2) Figure S5. Toxicity assays in ZL34 and Met5A cell lines. ZL34 or Met5A cells were plated in sterile 96-well microtiter plates at 5×10^4 cells/ml and grown in DMEM, supplemented with 5% fetal bovine serum. Cultures were maintained in a humidified atmosphere with 5% CO2, at 37°C. Solutions at the appropriate concentration of each compound were added, and then cells were grown for 24 h, 72 h and 96 h. After treatment, CAM or compound 4 was removed by washing the cells twice with PBS. The cells were then trypsinized, mixed with 1 ml DMEM and collected by centrifugation at 3,000×g for 5 min. Cell viabilities were determined by the trypan blue exclusion assay, using a TC10 automated cell counter (BIO-RAD). Viable cells were expressed as a percentage of total cells. SPD, spermidine.

[2] = test system: human mesothelioma cells ZL34; assay: Cell viability by trypan blue exclusion assay; type: cell-based; conditions: for IC50: Homo sapiens, ZL34 cells, read-out: IC50 (toxicity, cell viability)
Procedure: as §1, §2

[3] = test system: HS-Sultan (Burkitt's lymphoma) cells; assay: Toxicity assay in leukemic cell line (cell counting, Annexin V flow cytometry); type: cell-based, human; conditions: for induction of apoptosis (flow cytometry) / induction of necrosis (flow cytometry): 60 μM; for sensitivity of cells / inhibition of cell proliferation (cell counting): increasing concentrations
Procedure: Human leukemic cell lines, HS-Sultan (Burkitt's lymphoma) (European Collection of Cell Cultures, Salisbury, UK), Jurkat (T-cell acute lymphoblastic leukemia) and U937 (histiocytic lymphoma) (American Type Culture Collection, Manassas, USA), were adjusted to 1 × 10^9 cells/l in RPMI-1640 medium containing 1% Penicillin/Streptomycin and 10% fetal bovine serum and grown in triplicate in the presence or absence of CAM or PA–CAM conjugates for 4 days at 37°C, under a humidified 5% CO2 atmosphere. The medium was changed after 2 days of exposure; CAM or PA-CAM addition was repeated after medium change to keep the appropriate drug concentration. Aliquots were collected daily and counted in a CELL-DYN 3700 Hematology Analyzer. For cell necrosis and apoptosis assays, samples (10^6 cells) were collected daily and determined using the Annexin V-PE Apoptosis Detection Kit I (BD Pharmingen) for flow cytometry ([29]), as described by the manufacturer. Flow cytometry data were analyzed using the FlowJo flow cytometry analysis software. Necrotic and apoptotic cells were expressed as a percentage of total cells.
Figure S2. Toxicity assays in leukemic cell lines. Human leukemic cell lines, HS-Sultan, Jurkat, and U937 were adjusted to 1×10^9 cells/l in RPMI-1640 medium containing 1% Penicillin/Streptomycin and 10% fetal bovine serum and grown in triplicate in the presence or absence of CAM or compound 4 at the indicated concentrations for 5 days at 37°C, under a humidified 5% CO2 atmosphere. Aliquots were collected daily and counted in a CELL-DYN 3700 Hematology Analyzer.
Figure S3. Toxicity assays in HS-Sultan cells. HS-Sultan cells were adjusted to 1×10^9 cells/l in RPMI-1640 medium containing 1% Penicillin/Streptomycin and 10% fetal bovine serum and grown in triplicate in the presence or absence of CAM or compound 4 at the indicated concentrations for 4 days at 37°C, under a humidified 5% CO2 atmosphere. For cell necrosis and apoptosis assays, samples (10^6 cells) were collected daily and determined using the Annexin V-PE Apoptosis Detection Kit I for flow cytometry. Non-viable and necrotic cells were expressed as a percentage of total cells.

[4] = test system: E. coli (A2503C) TA531 cells with pKK35 plasmid, mutated 23S rRNA; assay: Growth inhibition of bacterial cell cultures, CAM-resistant mutant; type: cell-based; conditions: for IC50: Escherichia coli, read-out: IC50 (inhibit the growth by half)
From the text: (§3) CAM free base [D-(-)threo-1-(p-nitrophenyl)-2-amino-1,3-propanediol], puromycin dihydrochloride, tRNA^Phe from E. coli, dimethyl sulfate (DMS), DMS stop solution and tRNA^Phe from E. coli were purchased from Sigma-Aldrich. Kethoxal and 1-cyclohexyl-3-(2-morpholinoethyl)-carbodiimide metho-p-toluene sulfate (CMCT) were from MP Biomedicals and Fluka Biochemicals, respectively. AMV reverse transcriptase was supplied by Roche, dNTPs by HT Biotechnology, and ddNTPs by Jena Bioscience. L-[2,3,4,5,6 -^3H]Phenylalanine was from Amersham Biosciences and [α-^32P]ATP from Izotop. Cellulose nitrate filters (type HA; 0.45 μm pore size) were from Millipore Corp. Details in experimental procedures of synthesis and physical and spectra data for the synthesized compounds will be published elsewhere. […] The mesothelioma cell line ZL34 and its immortalized counterpart cell line Met5A, were kindly provided by Prof. G. Stathopoulos (University of Patras).
(§4) S. aureus or E. coli cells (400 μl of a 0.700 OD560 preculture) containing wild-type or mutant ribosomes were added in 3.6 ml of LB (Luria Broth) medium and grown at 37°C in the presence or absence of CAM or PA–CAM conjugates until the optical density of the control culture (grown in the absence of drug) reached the value 0.700 at 560 nm. From the growth curves, the IC50 value for each strain was estimated as the concentration of the drug that is required to inhibit the growth by half.

[5] = test system: E. coli (A2058G) TA531 cells with pKK35 plasmid, mutated 23S rRNA; assay: as above; type: cell-based; conditions: for IC50: Escherichia coli, read-out: IC50 (inhibit the growth by half)
From the text: as §3, §4

Compound	IC50 [1]	IC50 [2]	rescue by exogenously added spermidine ([2]; ZL34 cells treated with 300 μM compound, 3 mM spermidine)	induction of apoptosis (flow cytometry) [3]	induction of necrosis (flow cytometry) [3]	sensitivity of cells / inhibition of cell proliferation (cell counting) [3]	IC50 [4]	IC50 [5]	rescue by exogenously added spermidine ([1]; Met5A cells exposed to an IC50 dose of the compound, spermidine at 10 × IC50)	viability after rescue by exogenously added spermidine ([2]; ZL34 cells exposed to an IC50 dose of the compound, spermidine at 10 × IC50)	IC50 superiority over CAM ([4]; E. coli A2503C mutant)	IC50 superiority over CAM ([5]; E. coli A2058G mutant)
O=C(N[C@H](CO)[C@H](O)c1ccc([N+](=O)[O-])cc1)C(Cl)Cl [CAM, Chloramphenicol]	> 300 µM	> 300 µM	no rescue was observed	failed to induce apoptosis	induced necrosis	sensitive	24.7 ± 2.3 µM	15.5 ± 1.3 µM	–	–	–	–
NCCCN(CCCCN(Cc1ccccc1)Cc1ccccc1)C(=O)CCC(=O)N[C@H](CO)[C@H](O)c1ccc([N+](=O)[O-])cc1 [Compound 4]	60 ± 5 µM	25 ± 3 µM	–	apoptosis to HS-Sultan cells	induced necrosis	sensitive; also recorded: more effective than CAM	9.4 ± 0.9 µM	9.4 ± 1 µM	recover little of the lost viability	~95%	~2 fold	~2 fold
